# Test results published in ChEMBL document CHEMBL3638589, “Tricyclic derivative or pharmaceutically acceptable salts thereof, preparation method thereof, and pharmaceutical composition containing the same” (2014).
# Biological target: Poly [ADP-ribose] polymerase 1 (Homo sapiens, UniProt P09874)
# Experiment: Enzyme Inhibitory Assay: The activity of the compounds according to the present invention to inhibit the PARP-1 enzyme was examined using a PARP Assay kit (4671-096-K) purchased from Trevigen. The assay was performed following a modified previously reported method by Lee et al [Methods Find, Exp. Clin. Pharmacol., 27, 617-622, 2005].Histone was coated on 384-well plate, which is a small volume PS plate (784101) of Greiner Bio-One, and left at 25 C. for 2 hours. After that, the plate was rinsed four times with PBS (7.5 mM Na2HPO4, 2.5 mM NaH2PO4, 145 mM NaCl, pH 7.4), and in order to prevent non-specific reaction, the Strep-diluent (provided from kit of Trevigen) was added and left at 25 C. for one hour. After one hour, the plate was again rinsed with PBS four times, and the compounds of the Examples in various concentrations were put into reactant containing PARP-1 enzyme (0.12 unit/well), 2x PARP cocktail.
# Poly [ADP-ribose] polymerase 1, sequence (P09874 whole entry): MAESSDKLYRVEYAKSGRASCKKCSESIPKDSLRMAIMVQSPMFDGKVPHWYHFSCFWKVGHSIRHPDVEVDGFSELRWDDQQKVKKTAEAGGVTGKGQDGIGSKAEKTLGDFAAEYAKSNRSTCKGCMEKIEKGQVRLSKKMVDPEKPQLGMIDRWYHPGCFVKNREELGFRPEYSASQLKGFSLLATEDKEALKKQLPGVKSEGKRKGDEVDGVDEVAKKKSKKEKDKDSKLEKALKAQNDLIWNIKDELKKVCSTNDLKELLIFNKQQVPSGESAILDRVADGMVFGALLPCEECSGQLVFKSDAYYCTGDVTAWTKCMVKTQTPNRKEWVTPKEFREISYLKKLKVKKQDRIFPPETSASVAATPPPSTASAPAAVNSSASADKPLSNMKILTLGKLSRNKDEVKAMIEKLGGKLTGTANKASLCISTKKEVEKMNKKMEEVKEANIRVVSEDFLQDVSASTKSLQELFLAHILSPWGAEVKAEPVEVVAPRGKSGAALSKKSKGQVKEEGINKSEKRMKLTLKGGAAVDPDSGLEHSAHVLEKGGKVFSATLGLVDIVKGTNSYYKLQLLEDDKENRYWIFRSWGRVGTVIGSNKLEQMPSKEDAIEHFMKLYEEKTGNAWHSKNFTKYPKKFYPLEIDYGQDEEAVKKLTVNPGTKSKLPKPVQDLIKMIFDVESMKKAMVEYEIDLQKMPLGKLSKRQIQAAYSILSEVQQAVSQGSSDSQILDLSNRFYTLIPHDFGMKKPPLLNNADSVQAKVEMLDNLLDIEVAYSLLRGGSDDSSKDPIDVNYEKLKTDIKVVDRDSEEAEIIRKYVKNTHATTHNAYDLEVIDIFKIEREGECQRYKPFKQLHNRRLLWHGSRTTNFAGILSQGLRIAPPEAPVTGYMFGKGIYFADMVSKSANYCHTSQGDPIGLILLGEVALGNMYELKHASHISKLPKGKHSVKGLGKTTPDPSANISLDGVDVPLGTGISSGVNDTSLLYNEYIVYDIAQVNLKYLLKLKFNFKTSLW
row,SMILES,IC50 [nM]
1,CN(C)CCOc1ccc2c3c(c(=O)[nH]c2c1)CCCN3,1620
2,CN(C)Cc1cc(O)c2c3c(c(=O)[nH]c2c1)CCCN3,750
3,COc1cc(C[N+](C)(C)C2CCCC2)cc2[nH]c(=O)c3c(c12)NCCC3,290
